# Results taken from publication PMC9402538, “Rational design of a sensitivity-enhanced tracer for discovering efficient APC–Asef inhibitors” (Nature Communications, 2022).
# Where two headings read alike, the source gives them in different places. Where a SMILES comes first, the peptide text is derived from it. [ ]: non-standard residue; d: D form. The star is where a group is joined. Ala(cPent) = N[C@@H](CC1CCCC1)C(=O)O; Benzoyl(4-OMe) = COc1ccc(C(=O)*)cc1
# Biological target: T1, APC (303–739) (Homo sapiens, UniProt P25054)
# T1 sequence (P25054 303-739): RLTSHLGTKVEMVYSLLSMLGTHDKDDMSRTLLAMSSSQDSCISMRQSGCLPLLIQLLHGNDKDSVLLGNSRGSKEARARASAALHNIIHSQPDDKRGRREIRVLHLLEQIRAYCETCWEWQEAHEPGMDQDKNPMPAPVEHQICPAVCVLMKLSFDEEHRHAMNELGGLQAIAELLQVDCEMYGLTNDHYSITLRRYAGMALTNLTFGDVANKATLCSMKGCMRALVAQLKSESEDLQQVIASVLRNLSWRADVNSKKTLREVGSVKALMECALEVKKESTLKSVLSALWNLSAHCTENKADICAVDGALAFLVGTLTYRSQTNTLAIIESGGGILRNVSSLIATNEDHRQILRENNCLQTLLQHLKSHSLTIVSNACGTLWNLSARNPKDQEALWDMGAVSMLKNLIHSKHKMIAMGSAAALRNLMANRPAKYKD
# Experiment: FP competitive assay using tracer 7
# Assay type: binding
# Details: for IC50: tracer 7
# How it was run: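 Fluorescence polarization competition: APC (303–739) in 50 mM HEPES pH 7.5, 300 mM NaCl, 1 mM EDTA, 1 mM DTT, preincubated 1 h at room temperature with serially diluted peptides. FITC tracer 7 then added (400 nM stock) and FP read after 1.5 h at room temperature; IC50 by nonlinear regression, triplicates.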
# [1] = Conc. 4 μM, individual repeats, Fig3b
compound,measurement,setting,value
COc1ccc(C(=O)N[C@@H](C)C(=O)NCC(=O)N[C@@H](CCC(=O)O)C(=O)N[C@@H](CO)C(=O)N[C@@H](CC2CCCC2)C(=O)N[C@@H](Cc2ccc(O)cc2)C(=O)N[C@@H](CCC(=O)O)C(N)=O)cc1 [MAI-519] ({Benzoyl(4-OMe)}-AGES[Ala(cPent)]YE-NH2),inhibition at 0.001 µM,"Conc. 0.001 μM, individual repeats, Fig3b, read-out: %inhibition",1.6%
same,%inhibition,"Conc. 0.002 μM, individual repeats, Fig3b",2.6%
same,inhibition at 0.002 µM,"Conc. 0.002 μM, individual repeats, Fig3b, read-out: %inhibition",2.9%
same,%inhibition,"Conc. 0.0039 μM, individual repeats, Fig3b",5.4%
same,inhibition at 0.0039 µM,"Conc. 0.0039 μM, individual repeats, Fig3b, read-out: %inhibition",4.1%
same,inhibition at 0.006 µM,"Conc. 0.006 μM, individual repeats, Fig3b, read-out: %inhibition",4.4%
same,%inhibition,"Conc. 0.0078 μM, individual repeats, Fig3b",13.3%
same,inhibition at 0.0078 µM,"Conc. 0.0078 μM, individual repeats, Fig3b, read-out: %inhibition",8.8%
same,inhibition at 0.012 µM,"Conc. 0.012 μM, individual repeats, Fig3b, read-out: %inhibition",16.9%
same,%inhibition,"Conc. 0.0156 μM, individual repeats, Fig3b",35%
same,inhibition at 0.0156 µM,"Conc. 0.0156 μM, individual repeats, Fig3b, read-out: %inhibition",24%
same,inhibition at 0.024 µM,"Conc. 0.024 μM, individual repeats, Fig3b, read-out: %inhibition",38.4%
same,%inhibition,"Conc. 0.0313 μM, individual repeats, Fig3b",59%
same,inhibition at 0.0313 µM,"Conc. 0.0313 μM, individual repeats, Fig3b, read-out: %inhibition",51.7%
same,inhibition at 0.049 µM,"Conc. 0.049 μM, individual repeats, Fig3b, read-out: %inhibition",60.2%
same,%inhibition,"Conc. 0.0625 μM, individual repeats, Fig3b",74.1%
same,inhibition at 0.0625 µM,"Conc. 0.0625 μM, individual repeats, Fig3b, read-out: %inhibition",71.7%
same,inhibition at 0.098 µM,"Conc. 0.098 μM, individual repeats, Fig3b, read-out: %inhibition",77.7%
same,%inhibition,"Conc. 0.125 μM, individual repeats, Fig3b",86.1%
same,inhibition at 0.125 µM,"Conc. 0.125 μM, individual repeats, Fig3b, read-out: %inhibition",85.5%
same,inhibition at 0.195 µM,"Conc. 0.195 μM, individual repeats, Fig3b, read-out: %inhibition",89%
same,%inhibition,"Conc. 0.25 μM, individual repeats, Fig3b",91.7%
same,inhibition at 0.25 µM,"Conc. 0.25 μM, individual repeats, Fig3b, read-out: %inhibition",92.8%
same,inhibition at 0.391 µM,"Conc. 0.391 μM, individual repeats, Fig3b, read-out: %inhibition",94.2%
same,%inhibition,"Conc. 0.5 μM, individual repeats, Fig3b",95.8%
same,inhibition at 0.5 µM,"Conc. 0.5 μM, individual repeats, Fig3b, read-out: %inhibition",96.7%
same,inhibition at 0.781 µM,"Conc. 0.781 μM, individual repeats, Fig3b, read-out: %inhibition",97.3%
same,%inhibition,"Conc. 1 μM, individual repeats, Fig3b",97.7%
same,inhibition at 1 µM,"Conc. 1 μM, individual repeats, Fig3b, read-out: %inhibition",98.4%
same,inhibition at 1.563 µM,"Conc. 1.563 μM, individual repeats, Fig3b, read-out: %inhibition",98.1%
same,inhibition at 2 µM,"Conc. 2 μM, individual repeats, Fig3b, read-out: %inhibition",99.3%
same,inhibition at 3.125 µM,"Conc. 3.125 μM, individual repeats, Fig3b, read-out: %inhibition",98.9%
same,%inhibition,[1],98.8%
same,inhibition at 4 µM,[1],99%
same,inhibition at 6.25 µM,"Conc. 6.25 μM, individual repeats, Fig3b, read-out: %inhibition",99.5%
same,inhibition at 8 µM,"Conc. 8 μM, individual repeats, Fig3b",99%
same,inhibition at 12.5 µM,"Conc. 12.5 μM, individual repeats, Fig3b, read-out: %inhibition",97.6%
same,inhibition at 25 µM,"Conc. 25 μM, individual repeats, Fig3b, read-out: %inhibition",97.6%
same,inhibition at 50 µM,"Conc. 50 μM, individual repeats, Fig3b, read-out: %inhibition",97.6%
same,"mean (FP signal, FigS5)","Repeat 1, Conc. 0.006 μM",284.3
same,"mean (FP signal, FigS5)","Repeat 1, Conc. 0.012 μM",253.5
same,"mean (FP signal, FigS5)","Repeat 1, Conc. 0.024 μM",200.3
same,"mean (FP signal, FigS5)","Repeat 1, Conc. 0.049 μM",146.3
same,"mean (FP signal, FigS5)","Repeat 1, Conc. 0.098 μM",103
same,"mean (FP signal, FigS5)","Repeat 1, Conc. 0.195 μM",75
same,"mean (FP signal, FigS5)","Repeat 1, Conc. 0.391 μM",62
same,"mean (FP signal, FigS5)","Repeat 1, Conc. 0.781 μM",54.3
same,"mean (FP signal, FigS5)","Repeat 1, Conc. 1.563 μM",52.3
same,"mean (FP signal, FigS5)","Repeat 1, Conc. 3.125 μM",50.3
same,"mean (FP signal, FigS5)","Repeat 1, Conc. 6.25 μM",49
same,"mean (FP signal, FigS5)","Repeat 1, Conc. 12.5 μM",53.7
same,"mean (FP signal, FigS5)","Repeat 1, Conc. 25 μM",53.7
same,"mean (FP signal, FigS5)","Repeat 1, Conc. 50 μM",53.7
same,"mean (FP signal, FigS5)","Repeat 2, Conc. 0.001 μM",301
same,"mean (FP signal, FigS5)","Repeat 2, Conc. 0.002 μM",297.7
same,"mean (FP signal, FigS5)","Repeat 2, Conc. 0.0039 μM",294.7
same,"mean (FP signal, FigS5)","Repeat 2, Conc. 0.0078 μM",282.7
same,"mean (FP signal, FigS5)","Repeat 2, Conc. 0.0156 μM",244
same,"mean (FP signal, FigS5)","Repeat 2, Conc. 0.0313 μM",173.3
same,"mean (FP signal, FigS5)","Repeat 2, Conc. 0.0625 μM",122.3
same,"mean (FP signal, FigS5)","Repeat 2, Conc. 0.125 μM",87.3
same,"mean (FP signal, FigS5)","Repeat 2, Conc. 0.25 μM",68.7
same,"mean (FP signal, FigS5)","Repeat 2, Conc. 0.5 μM",58.7
same,"mean (FP signal, FigS5)","Repeat 2, Conc. 1 μM",54.3
same,"mean (FP signal, FigS5)","Repeat 2, Conc. 2 μM",52
same,"mean (FP signal, FigS5)","Repeat 2, Conc. 4 μM",53
same,"mean (FP signal, FigS5)","Repeat 2, Conc. 8 μM",53
same,"mean (FP signal, FigS5)","Repeat 3, Conc. 0.001 μM",292.7
same,"mean (FP signal, FigS5)","Repeat 3, Conc. 0.002 μM",290.3
same,"mean (FP signal, FigS5)","Repeat 3, Conc. 0.0039 μM",283.3
same,"mean (FP signal, FigS5)","Repeat 3, Conc. 0.0078 μM",264
same,"mean (FP signal, FigS5)","Repeat 3, Conc. 0.0156 μM",211
same,"mean (FP signal, FigS5)","Repeat 3, Conc. 0.0313 μM",152
same,"mean (FP signal, FigS5)","Repeat 3, Conc. 0.0625 μM",115
same,"mean (FP signal, FigS5)","Repeat 3, Conc. 0.125 μM",85.7
same,"mean (FP signal, FigS5)","Repeat 3, Conc. 0.25 μM",72
same,"mean (FP signal, FigS5)","Repeat 3, Conc. 0.5 μM",62
same,"mean (FP signal, FigS5)","Repeat 3, Conc. 1 μM",57.3
same,"mean (FP signal, FigS5)","Repeat 3, Conc. 2 μM",56.3
same,"mean (FP signal, FigS5)","Repeat 3, Conc. 4 μM",54.7
same,"mean (FP signal, FigS5)","Repeat 3, Conc. 8 μM",53.3
same,IC50,"mean of three repeats, read-out: IC50 mean",25.1 nM
same,IC50,read-out: IC50 Repeat 1,23 nM
same,IC50,read-out: IC50 Repeat 2,29.6 nM
same,IC50,read-out: IC50 Repeat 3,22.7 nM
